# According to paper PMC8454699, “Structure and function of aerotolerant, multiple-turnover THI4 thiazole synthases” (Biochemical Journal, 2021):
# Molecular target: T1, Thermovibrio ammonificans THI4 (TaTHI4) (Thermovibrio ammonificans, UniProt E8T346)
# T1 construct: N-terminal His6 tag (pBAD24, recoded gene), E. coli BL21(DE3); homooctamer, four monomers per asymmetric unit; anaerobically reconstituted with Fe(II), NAD+ and glycine
# Assay: X-ray crystallography, […] A
# Type: binding
# Conditions: reaction intermediate formed from NAD+ and glycine; Fe(II)-reconstituted, anaerobic; pH 7.5, 22 °C; active site, pincer-type ligand of Fe(II)
smiles,measurement,value
CC(N=CC(=O)O)C(=O)C(O)COP(=O)(O)OP(=O)(O)OC[C@H]1O[C@@H](n2cnc3c(N)ncnc32)[C@H](O)[C@@H]1O (stereo partly shown) [glycine imine intermediate],"X-ray crystallography, 2.3 A",Clear density for the TaTHI4 treated with NAD and glycine shows the expected glycine imine
